This data set can be described thus: Transparency (no crystallization or gelation) of 12-hydroxystearic acid compositions after manufacturing, visual inspection. Format: physicochemical. On the set-up: key: C: a substantially transparent or transparent composition for at least three (3) months after manufacturing; X: an opaque (non-transparent, non-translucent) composition inconsistent with the claimed compositions of this invention and where benefit agent crystallization or composition gelation is almost immediately observed. The settings on record: SBA = 12-hydroxystearic acid. The text has this:
Cosmetic composition is meant to mean a leave-on or wash-off composition, preferably leave-on, for topical application to mammals, especially humans. Such a composition can include tonics, lotions, personal washes, serums, spot correctors, compositions for facial masks or wipes, make-up removers, patches, scrubs or the like. Substantially transparent as used herein, means allowing light to pass but diffusing the light so that items on the opposite side of light entry are not clearly visible. Substantially transparent is synonymous with translucent. Transparent, as used herein, means capable of transmitting light where objects opposite the point of entry of light are seen clearly upon a visable inspection (i.e., 2.5 cm of sample placed 5 cm over an object and viewed from 25 cm away from viewer's eyes). Flowable, as used herein, means having a viscosity from 0 to 8,000 cps, and preferably, from 10 to 4,000 cps, and most preferably, from 500 to 2,000 cps, including all ranges subsumed therein (viscosity measured on a Brookfield Viscometer, 24° C., 20 RPM, Spindle RV2). Free of crystallization and gelation as used herein means remaining at least substantially transparent (preferably transparent) at ambient temperature for at least three (3) months. Use of substantially transparent, transparent and translucent herein is based on the mixture of hydroxy functionalized solvent (with or without miscible co-solvent) and 12-hydroxystearic acid. It is not to say the mixture cannot, for example, comprise an optional opacifier. Hydroxy group density (“HD”) means the molecular weight of total solvent hydroxy group/the molecular weight of the solvent where solvent hydroxy group can include the hydroxy group on a carboxylic acid group. Methanol, for example, has an HD of 0.53, 17 g/mol/32 g/mol. Regarding optional additives, they may be used according to their solubility where those that are not water soluble may be selected for use in the composition substantially free of water as described herein and those which are water soluble may be used in the aforementioned optional but separate and distinct phase. Miscible/Soluble, as used herein, means ability to mix/dissolve homogeneously at 70 to 85° C. and remain homogeneously dissolved or mixed upon cooling. Comprising, as used herein, is meant to include consisting essentially of and consisting of. For the avoidance of doubt, therefore, the composition of this invention may consist essentially of or consist of 12-hydroxystearic acid and hydroxy functionalized solvent. Anhydrous as used herein means a composition substantially free of water whereby the composition is less than 2% by weight water, and preferably, less than 1% by weight water based on total weight of the composition comprising 12-hydroxystearic acid and hydroxy functionalized solvent. Anhydrous also includes free of water (i.e., no water) within the composition comprising 12-hydroxystearic and hydroxy fuctionalized solvent. Double phase product includes a two (2) portion product that may be separately packaged or preferably a biphasic product (i.e., distinct immiscible portions). Skin benefit agent means an agent in addition to hydroxyl functionalized solvent and 12-hydroxystearic acid that provides benefit to skin. The skin benefit agent used in the anhydrous composition of the invention that comprises 12-hydroxystearic acid is preferably soluble or miscible in the same. To the extent optional water miscible/soluble actives or ingredients are used, they will preferably be provided, as later described, in a double phase product with the anhydrous composition of this invention, the double phase product having a distinct phase often being a water phase (including emulsions, solutions and dispersions), water containing concentrate or water soluble solid, particulate or powder. Water phase, as used herein, includes a composition having 2% or more water, and preferably, from 10% to 98% by weight water based on total weight of the water phase. […]

In the case of `CCCCCCCCCCC(CO)CCCCCCCC` (stereo not drawn) [Octyldodecanol], the Transparency of composition entry reads like this: (1% SBA/99% Solvent) “C (a substantially transparent or transparent composition for at least three (3) months after manufacturing)”; (3% SBA/97% Solvent) “C (a substantially transparent or transparent composition for at least three (3) months after manufacturing)”; (5% SBA/95% Solvent) “X”; (10% SBA/90% Solvent) “X”; (15% SBA/85% Solvent) “X”; (20% SBA/80% Solvent) “X”. Also, under “25% SBA/75% Solvent”, the Transparency of composition result was “X”.

Regarding `OCCOc1ccccc1` [Pehnoxyethanol], the Transparency of composition entry was “C (a substantially transparent or transparent composition for at least three (3) months after manufacturing)” (1% SBA/99% Solvent); “C (a substantially transparent or transparent composition for at least three (3) months after manufacturing)” (3% SBA/97% Solvent); “C (a substantially transparent or transparent composition for at least three (3) months after manufacturing)” (5% SBA/95% Solvent); “X” (10% SBA/90% Solvent); “X” (15% SBA/85% Solvent); “X” (20% SBA/80% Solvent). Moreover, the Transparency of composition entry (25% SBA/75% Solvent) is “X”.

Regarding `OCCCCO` [Butylene Glycol], the Transparency of composition entry reads like this: (1% SBA/99% Solvent) “C (a substantially transparent or transparent composition for at least three (3) months after manufacturing)”; (3% SBA/97% Solvent) “X”; (5% SBA/95% Solvent) “X”; (10% SBA/90% Solvent) “X”; (15% SBA/85% Solvent) “X”; (20% SBA/80% Solvent) “X”. In addition, the Transparency of composition entry (25% SBA/75% Solvent) is “X”.

Consider `CCOCCOCCO` [2-(2-Ethoxyethoxy)ethanol], for which the Transparency of composition entry (1% SBA/99% Solvent) is reported as “C (a substantially transparent or transparent composition for at least three (3) months after manufacturing)”; the Transparency of composition result (3% SBA/97% Solvent) is “C (a substantially transparent or transparent composition for at least three (3) months after manufacturing)”; the Transparency of composition result (5% SBA/95% Solvent) is recorded as “C (a substantially transparent or transparent composition for at least three (3) months after manufacturing)”; the Transparency of composition result (10% SBA/90% Solvent) is recorded as “X”; the Transparency of composition entry (15% SBA/85% Solvent) is “X”; the Transparency of composition result (20% SBA/80% Solvent) is listed as “X”. Further, the Transparency of composition result (25% SBA/75% Solvent) is listed as “X”.

On to `OCc1ccccc1` [Benzyl Alcohol], for which the Transparency of composition entry runs as follows: (1% SBA/99% Solvent) “C (a substantially transparent or transparent composition for at least three (3) months after manufacturing)”; (3% SBA/97% Solvent) “C (a substantially transparent or transparent composition for at least three (3) months after manufacturing)”; (5% SBA/95% Solvent) “C (a substantially transparent or transparent composition for at least three (3) months after manufacturing)”; (10% SBA/90% Solvent) “X”; (15% SBA/85% Solvent) “X”; (20% SBA/80% Solvent) “X”. Besides, the Transparency of composition entry (25% SBA/75% Solvent) is on record as “X”.

`CC(C)CCCCCCCCCCCCCCC(=O)O` [Isostearic Acid]: the Transparency of composition entry is on record as “C (a substantially transparent or transparent composition for at least three (3) months after manufacturing)” (1% SBA/99% Solvent); “C (a substantially transparent or transparent composition for at least three (3) months after manufacturing)” (3% SBA/97% Solvent); “X” (5% SBA/95% Solvent); “X” (10% SBA/90% Solvent); “X” (15% SBA/85% Solvent); “X” (20% SBA/80% Solvent). For the setting “25% SBA/75% Solvent”, the Transparency of composition entry was “X”.

For the compound `CC(C)CCCCCCCCCCCCCCCO` [Isostearyl Alcohol], the Transparency of composition entry by setting is: (1% SBA/99% Solvent) “C (a substantially transparent or transparent composition for at least three (3) months after manufacturing)”; (3% SBA/97% Solvent) “C (a substantially transparent or transparent composition for at least three (3) months after manufacturing)”; (5% SBA/95% Solvent) “X”; (10% SBA/90% Solvent) “X”; (15% SBA/85% Solvent) “X”; (20% SBA/80% Solvent) “X”. Also, for the setting “25% SBA/75% Solvent”, the Transparency of composition entry is “X”.

Turning to `CCO` [Ethanol], the Transparency of composition entry by setting is: (1% SBA/99% Solvent) “C (a substantially transparent or transparent composition for at least three (3) months after manufacturing)”; (3% SBA/97% Solvent) “C (a substantially transparent or transparent composition for at least three (3) months after manufacturing)”; (5% SBA/95% Solvent) “C (a substantially transparent or transparent composition for at least three (3) months after manufacturing)”; (10% SBA/90% Solvent) “C (a substantially transparent or transparent composition for at least three (3) months after manufacturing)”; (15% SBA/85% Solvent) “C (a substantially transparent or transparent composition for at least three (3) months after manufacturing)”; (20% SBA/80% Solvent) “X”. The Transparency of composition result (25% SBA/75% Solvent) is “X”.

In the case of Conjugated Linoleic Acid, the Transparency of composition entry runs as follows: (1% SBA/99% Solvent) “C (a substantially transparent or transparent composition for at least three (3) months after manufacturing)”; (3% SBA/97% Solvent) “C (a substantially transparent or transparent composition for at least three (3) months after manufacturing)”; (5% SBA/95% Solvent) “X”; (10% SBA/90% Solvent) “X”; (15% SBA/85% Solvent) “X”; (20% SBA/80% Solvent) “X”. The Transparency of composition entry (25% SBA/75% Solvent) is “X”.

As for `CO` [Methanol], the Transparency of composition result is reported as “C (a substantially transparent or transparent composition for at least three (3) months after manufacturing)” (1% SBA/99% Solvent); “C (a substantially transparent or transparent composition for at least three (3) months after manufacturing)” (3% SBA/97% Solvent); “C (a substantially transparent or transparent composition for at least three (3) months after manufacturing)” (5% SBA/95% Solvent); “C (a substantially transparent or transparent composition for at least three (3) months after manufacturing)” (10% SBA/90% Solvent); “C (a substantially transparent or transparent composition for at least three (3) months after manufacturing)” (15% SBA/85% Solvent); “C (a substantially transparent or transparent composition for at least three (3) months after manufacturing)” (20% SBA/80% Solvent). Besides, where the note is “25% SBA/75% Solvent”, the Transparency of composition entry is reported as “X”.

In the case of Ethylhexyl Hydroxystearate, the Transparency of composition entry runs as follows: (1% SBA/99% Solvent) “C (a substantially transparent or transparent composition for at least three (3) months after manufacturing)”; (3% SBA/97% Solvent) “X”; (5% SBA/95% Solvent) “X”; (10% SBA/90% Solvent) “X”; (15% SBA/85% Solvent) “X”; (20% SBA/80% Solvent) “X”. Also, the Transparency of composition entry (25% SBA/75% Solvent) is reported as “X”.

Turning to `CC(O)CO` (stereo not drawn) [Propylene Glycol], the Transparency of composition entry was “C (a substantially transparent or transparent composition for at least three (3) months after manufacturing)” (1% SBA/99% Solvent); “X” (3% SBA/97% Solvent); “X” (5% SBA/95% Solvent); “X” (10% SBA/90% Solvent); “X” (15% SBA/85% Solvent); “X” (20% SBA/80% Solvent). Further, where the note is “25% SBA/75% Solvent”, the Transparency of composition result was “X”.
